# In US20060153894A1, “Multi-compartment delivery system” (priority 2004, published 2006):
# System: TNF-α secretion from LPS-stimulated PBMC
# Experiment: TNF-α secretion from LPS-stimulated PBMC with p38 inhibitor loaded in the outer compartment (ELISA)
# Assay type: cell-based, human
# Conditions: outer compartments loaded with 10.99 ng, 109.9 ng or 1099 ng, 1×10^6 PBMC on inner compartment, LPS 10 ng/ml overnight
# Protocol: Outer compartments were made from a composite matrix similar to the one prepared in Example 3. The compartments were loaded with three different amounts (10.99 ng, 109.9 ng, or 1099 ng) of p38 kinase inhibitor (JNJ 3026582, also known as RWJ 67657). The chemical structure of this compound (4-[4-(4-fluorophenyl)-1-(3-phenylpropyl)-5-44-pyridinyl)-1H-imidazol-2-yl]-3-butyn-1-ol) has been previously documented (Wadsworth et al., J. Pharm. Exp. Ther 291:680-687, 1999).
# The inner compartments were prepared from a non-woven Vicryl® fibrous matrix fabricated as described in Example 2. Mononuclear cells were freshly isolated from human peripheral blood, counted and adjusted to a final cell number in RPMI-1640 (Invitrogen Life Technologies, Carlsbad, Calif.) with 1% fetal bovine serum (FBS, HyClone, Logan, UT). A total of 1×10^6 cells in a final volume of 50ul were seeded onto the inner compartments.
# The two compartments were combined and pre-cultured for 1 hour in a 24-well plate with 0.5 ml culture medium. A stimulus of LPS (lipopolysaccharide) (10 ng/ml; Sigma, St. Louis, Mo.) was added to each well and incubated overnight at 37° C., 5%CO2. Supernatant from each well was collected and analyzed for TNF-α content using a standard commercial ELISA kit (R&D Systems, Minneapolis, Minn.). […]
structure (smiles),measurement,setting,value
OCCC#Cc1nc(-c2ccc(F)cc2)c(-c2ccncc2)n1CCCc1ccccc1 [RWJ 67657],inhibition of TNF-α secretion,,dose dependent inhibition
same,inhibition of TNF-α secretion,listed as p38 inhibitor,inhibited in a dose-dependent manner
